Values of other authors in US11610144B2, “Biosignature discovery for substance use disorder using statistical learning” (BioRealm LLC, priority 2018, dated 2023).
Entries after “also recorded” stand apart in the source; their conditions may differ.

Experiments:
[1] = system: smokers; details: meta-analyses of RCTs
[2] = system: smokers, slow and normal nicotine metabolizers; details: NMR from direct biochemical measurement

Row | SMILES | smoking cessation efficacy compared with placebo [1] | response to treatment, VAR versus NRT [2]
1 | c1cnc2cc3c(cc2n1)[C@@H]1CNC[C@H]3C1 [VAR, varenicline] | significantly more effective than placebo | responded significantly better than those randomized to NRT; also recorded: responded significantly better to VAR than to NRT
2 | CC(NC(C)(C)C)C(=O)c1cccc(Cl)c1 (stereo not drawn) [BUP, bupropion] | significantly more effective than placebo | 
